Values quoted from earlier work in article PMC8198792, “Prediction of Anticancer Peptides with High Efficacy and Low Toxicity by Hybrid Model Based on 3D Structure of Peptides” (International Journal of Molecular Sciences, 2021).
Like-named read-outs stand apart in the source and are kept apart here.

Tested on: cancer cell lines
Parameters: method as in 6 sources, ref CancerPPD [45] and SATPdb ||| ref CancerPPD/SATPdb ||| ref CancerPPD, SATPdb, Swissprot (PDB) ||| ref CancerPPD/SATPdb/Swissprot(PDB) ||| ref CancerPPD / SATPdb ||| ...
Conditions: cited from earlier work
Excerpt: Supplement ijms-22-05630-s001.zip/ACPs(seguence).xlsx, sheet "D1" | column: Activity || Supplement ijms-22-05630-s001.zip/ACPs(seguence).xlsx, sheet "D2" | column: Activity || Supplement ijms-22-05630-s001.zip/ACPs(seguence).xlsx, sheet "D3" | column: Activity || (+ 2 further places)

[1] = ACPs dataset D3 (supplement sheet "D3"), 1 = ACP, 0 = non-ACP, ref CancerPPD [45] and SATPdb
[2] = ACPs dataset D4 (sheet "D4"), label 1 = ACP (CancerPPD ID), 0 = non-ACP (non-anticancer AMP, SATPdb ID), ref CancerPPD [45] and SATPdb
[3] = ACPs dataset D5 (sheet "D5"), label 1 = ACP (positive set), 0 = non-ACP (negative set), ref CancerPPD [45] and SATPdb
[4] = ACPs dataset D1, 1 = ACP (positive), 0 = non-ACP (negative), label taken from databases, ref CancerPPD [45] and SATPdb
[5] = ACPs dataset D4 (sheet "D4"), label 1 = ACP, experimentally validated ACPs, ref CancerPPD [45] and SATPdb
[6] = ACPs dataset D5 (sheet "D5"), label 1 = ACP (positive set), sequences with CancerPPD/SATPdb ID, ref CancerPPD, SATPdb
[7] = ACPs dataset sheet D2, 1 = ACP (CancerPPD/SATPdb ID), 0 = non-ACP (Swissprot/PDB ID), ref CancerPPD, SATPdb, Swissprot (PDB)
[8] = ACPs dataset D2 (supplement ACPs(seguence).xlsx, sheet D2), dataset label 1/0 (ACP / non-ACP), entries identified by Swissprot(PDB ID), ref CancerPPD/SATPdb/Swissprot(PDB)
[9] = ACPs dataset D1, label 1 = ACP, 0 = non-ACP (non-anticancer AMPs from SATPdb), ref CancerPPD/SATPdb
[10] = ACPs dataset D4 (sheet "D4"), label 1 = ACP, 0 = non-ACP, ref CancerPPD / SATPdb
[11] = ACPs dataset D5, sheet "D5", label 1 = ACP, 0 = non-ACP, ref CancerPPD [45] and SATPdb
[12] = ACPs dataset D3 (sheet "D3"), label 1 = ACP, 0 = non-ACP, ref CancerPPD/SATPdb

Substance: GLFAVIKKVAKVIKKL [compound 4138]
- Activity [1]: 1
- Activity [2]: 1
- Activity [3]: 1

Substance: MPTWAWWLFLVLLLALWAPARG [satpdb27488]
- Activity [4]: 1
- Activity [5]: 1
- Activity [6]: 1
- Activity [7]: 1

Substance: GLFAVIKKVAAVIKKL [compound 4120]
- Activity [1]: 1
- Activity [2]: 1
- Activity [3]: 1

Substance: VLSIVACSSGCGSGKTAASCVETCGNRCFTNVGSLC [satpdb10613]
- Activity [4]: 0
- Activity [2]: 0

Substance: MPQLVPFYFMNQLTYGFLLMITLLILFSQFFLPMILRLYVSRLFISKL [6B2Z electron microscopy 3.60,A/L,1-48]
- Activity [8]: 0
- Activity [3]: 0

Substance: GPSQPTYPGDDAPVEDLIRFYNDLQQYLNVVTRHRY [1PPT X-ray 1.37 A 1-36]
- Activity [8]: 0
- Activity [3]: 0

Substance: TEENRELVSELKRP [satpdb12614]
- Activity [4]: 1
- Activity [5]: 1
- Activity [6]: 1
- Activity [7]: 1

Substance: KWKSFLKTFKSLKkTVLHTLLkAISS [compound 3766]
- Activity [1]: 1
- Activity [2]: 1
- Activity [3]: 1

Substance: DLRFWNPREKLPLPTLPPFNPKPIYIDMGNRY [satpdb12945]
- Activity [9]: 0
- Activity [10]: 0

Substance: HTHQDFQPVLHLVALNTPLSGGMRGIR [satpdb17795]
- Activity [4]: 1
- Activity [5]: 1
- Activity [6]: 1
- Activity [7]: 1

Substance: HFLLTKVNLAKKIL [satpdb11375]
- Activity [1]: 0
- Activity [10]: 0
- Activity [11]: 0

Substance: KWFKKIPKFLHLLKKF [compound 1120]
- Activity [1]: 1
- Activity [2]: 1
- Activity [3]: 1

Substance: GFHDHGPCDPPSHK [satpdb16441]
- Activity [4]: 1
- Activity [5]: 1
- Activity [6]: 1
- Activity [7]: 1

Substance: GVVDILKGAAKDLAGHLATKVMNKL [satpdb14637]
- Activity [12]: 0
- Activity [10]: 0
- Activity [11]: 0

Substance: VRRFPWWWAFLRR [satpdb11783]
- Activity [1]: 0
- Activity [10]: 0
- Activity [11]: 0

Substance: NVWKKILGKIIKVVK [compound 4347]
- Activity [1]: 1
- Activity [2]: 1
- Activity [3]: 1

Substance: MEKVQYLTRSAIRRASTIEMPQQARQNLQNLFINFCLILICLLLICIIVMLL [1N7L NMR - A 1-52]
- Activity [8]: 0
- Activity [11]: 0

Substance: QLKKCWNNYVQGHCRKICRVNEVPEALCENGRYCCLNIKELEAC [satpdb10388]
- Activity [4]: 0
- Activity [2]: 0

Substance: ILPWKWPWAPARR [satpdb12615]
- Activity [12]: 0
- Activity [10]: 0
- Activity [11]: 0

Substance: GMWSKILGKLIR [compound 3638]
- Activity [1]: 1
- Activity [2]: 1
- Activity [3]: 1

Substance: FLPVVAGLAAKVLPSIICAVTKKC [satpdb12902]
- Activity [9]: 0
- Activity [10]: 0

Substance: YGRKKRRQRRRREADFFWSLCTADMS [compound 3718]
- Activity [4]: 1
- Activity [5]: 1
- Activity [6]: 1
- Activity [7]: 1

Substance: FVQWFSKFLGRIL [6GS5 NMR - A 1-13]
- Activity [3]: 0

Substance: FVDLKKIANIINSIF [compound 2851]
- Activity [1]: 1
- Activity [2]: 1
- Activity [3]: 1

Substance: LCYARRRFAVCV [satpdb13142]
- Activity [9]: 0
- Activity [10]: 0

Substance: CLGVGSCNDFAGCGYAIVCFW [satpdb11014]
- Activity [4]: 0
- Activity [2]: 0

Substance: FAKKLAKLAKKLLAL [compound 1790]
- Activity [1]: 1
- Activity [5]: 1
- Activity [6]: 1

Substance: DKLIGSCVWGAVNYTSDCNGECKRRGYKGGHCGSFANVNCWCET [1I2U NMR - A 1-44]
- Activity [8]: 0
- Activity [3]: 0

Substance: KWKSFlKTFKSlKKTVLHTLLKAISS [compound 3770]
- Activity [1]: 1
- Activity [2]: 1
- Activity [3]: 1

Substance: MFFSSKKCKTVSKTFRGPCVRNA [satpdb11127]
- Activity [4]: 0
- Activity [2]: 0

Substance: KWKSFLKTFKSlKKTVLHTLLKAISS [compound 3769]
- Activity [1]: 1
- Activity [2]: 1
- Activity [3]: 1

Substance: ITMQGIQGQKIRMIMF [satpdb23309]
- Activity [4]: 1
- Activity [5]: 1
- Activity [6]: 1
- Activity [7]: 1

Substance: KRFKKFFKKLKNSVKKRVKKFFRKPRVIGVTFPF [satpdb10654]
- Activity [4]: 0
- Activity [2]: 0

Substance: PIDERLRTCERLSYP [satpdb14897]
- Activity [4]: 1
- Activity [5]: 1
- Activity [6]: 1
- Activity [7]: 1

Substance: GLFTLIKGAAKLIGKTVPKKQARLGMNLWLVKLPTNVKT [satpdb12795]
- Activity [9]: 0
- Activity [10]: 0

Substance: RCTCTTIISSSSTF [satpdb11144]
- Activity [4]: 0
- Activity [2]: 0

Substance: WNPFKELERAGQRVRDAIISAAPAVATVGQAAAIARG [satpdb12131]
- Activity [9]: 0
- Activity [2]: 0

Substance: KKLLKWLKKLL [satpdb14598]
- Activity [12]: 0
- Activity [10]: 0
- Activity [11]: 0

Substance: IPCGESCVWIPCISGMFGCSCKDKVCYS [compound 4368]
- Activity [4]: 1
- Activity [5]: 1
- Activity [6]: 1
- Activity [7]: 1

Substance: GLFDVIAKVASVIKKL [compound 4093]
- Activity [1]: 1
- Activity [2]: 1
- Activity [3]: 1

Substance: FLPIIAGAAAKVVEKIFCAISKKC [compound 4357]
- Activity [4]: 1
- Activity [5]: 1
- Activity [6]: 1
- Activity [7]: 1

Substance: ALWKTLLKKVLKA [satpdb10405]
- Activity [1]: 0

Substance: MPCSCKKYCDPWEVIDGSCGLFNSKYICCREK [1EWS NMR - A 1-32]
- Activity [3]: 0
- Activity [7]: 0

Substance: GLLDIVKKVVGAFGSL [compound 4414]
- Activity [4]: 1
- Activity [5]: 1
- Activity [6]: 1
- Activity [7]: 1

Substance: GGLKKLGKKLEGVGKRVFKASEKALPVLTGYKAIG [satpdb10158]
- Activity [4]: 0
- Activity [2]: 0

Substance: GLLGPLLKIAAKVGSNLL [compound 4417]
- Activity [4]: 1
- Activity [5]: 1
- Activity [6]: 1
- Activity [7]: 1

Substance: SPWDIASVTAGGVQKRS [satpdb27667]
- Activity [4]: 1
- Activity [5]: 1
- Activity [6]: 1
- Activity [7]: 1

Substance: GWLPTFGKILRKAMQLGPKLIQPI [satpdb12473]
- Activity [9]: 0
- Activity [2]: 0

Substance: KWKLFKKIGIGKFLHSATTF [compound 1188]
- Activity [1]: 1
- Activity [2]: 1
- Activity [3]: 1

Substance: ESVFSKIGNAVGPAAYWILKGLGNMSDVNQADRINRKKH [satpdb11882]
- Activity [9]: 0
- Activity [2]: 0

Substance: IDWKKLLDAAKQIL [compound 4438]
- Activity [4]: 1
- Activity [5]: 1
- Activity [6]: 1
- Activity [7]: 1

Substance: RPFVEMYSEIPE [satpdb28120]
- Activity [4]: 1
- Activity [5]: 1
- Activity [6]: 1
- Activity [7]: 1

Substance: GLWSKIKEAAKAAGKAALNAVTGLVNQGDQPS [compound 4452]
- Activity [4]: 1
- Activity [5]: 1
- Activity [6]: 1
- Activity [7]: 1

Substance: RGFRKHFNKLVKKVKHTISETAHVAKDTAVIAG [satpdb11665]
- Activity [1]: 0
- Activity [10]: 0
- Activity [11]: 0

Substance: AWKKWAKAWKWAKAKWWAKAA [compound 4482]
- Activity [4]: 1
- Activity [5]: 1
- Activity [6]: 1
- Activity [7]: 1

Substance: GLFDIAKKVIGVIGSL [compound 1270]
- Activity [1]: 1
- Activity [2]: 1
- Activity [3]: 1

Substance: ALLHHGLNCAKGVLA [satpdb12694]
- Activity [9]: 0
- Activity [2]: 0

Substance: GLFDVIKKVASVIKKL [compound 4084]
- Activity [1]: 1
- Activity [2]: 1
- Activity [3]: 1

Substance: LCYCRRRFCGCV [satpdb12860]
- Activity [9]: 0
- Activity [10]: 0

Substance: QLGELIQQGGQKIVEKIQKIGQRIRDFFSNLRPRQEA [satpdb13050]
- Activity [9]: 0
- Activity [10]: 0

Substance: MKNAKQEHFELDQEWVELMVEAKEANISPEEIRKYLLLNKKSAHPGPAARSHTVNPF [1B0N X-ray 1.90,B,1-57]
- Activity [8]: 0
- Activity [11]: 0

Substance: KRGFGKKLRKRLKKFRNSIKKRLKNFNVVIPIPLPG [satpdb11105]
- Activity [4]: 0
- Activity [2]: 0
